What was measured:
[1] = chemical chaperones that inhibit ER stress; cited from earlier work
[2] = Metabolic stability, method not specified; format: in vitro ADME
sEH = molecular target: T1, sEH (Homo sapiens, UniProt P34913); test: sEH inhibition, assay not specified; format: biochemical
T1 sequence (P34913 1-555): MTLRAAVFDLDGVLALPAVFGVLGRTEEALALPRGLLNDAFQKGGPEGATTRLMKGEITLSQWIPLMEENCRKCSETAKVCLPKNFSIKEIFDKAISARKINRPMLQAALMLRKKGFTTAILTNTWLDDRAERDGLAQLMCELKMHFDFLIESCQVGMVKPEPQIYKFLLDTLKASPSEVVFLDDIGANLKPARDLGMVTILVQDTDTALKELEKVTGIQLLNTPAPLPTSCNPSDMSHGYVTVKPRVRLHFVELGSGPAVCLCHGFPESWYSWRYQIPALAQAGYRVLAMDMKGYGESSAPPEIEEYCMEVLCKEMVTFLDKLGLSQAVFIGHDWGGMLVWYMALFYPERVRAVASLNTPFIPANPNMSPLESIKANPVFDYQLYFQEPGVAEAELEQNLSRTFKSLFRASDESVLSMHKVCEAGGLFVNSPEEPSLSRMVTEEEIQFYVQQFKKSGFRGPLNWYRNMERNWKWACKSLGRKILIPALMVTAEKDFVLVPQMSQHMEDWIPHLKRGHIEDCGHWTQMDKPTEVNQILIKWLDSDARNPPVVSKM
Description: “Soluble epoxide hydrolase” (“sEH”) is an epoxide hydrolase which in endothelial and smooth muscle cells converts EETs to dihydroxy derivatives called dihydroxyeicosatrienoic acids (“DHETs”). The cloning and sequence of the murine sEH is set forth in Grant et al., J. Biol. Chem. 268(23):17628-17633 (1993). The cloning, sequence, and accession numbers of the human sEH sequence are set forth in Beetham et al., Arch. Biochem. Biophys. 305(1):197-201 (1993). The amino acid sequence of human sEH is SEQ ID NO.:1, while the nucleic acid sequence encoding the human sEH is SEQ ID NO.:2. (The sequence set forth as SEQ ID NO.:2 is the coding portion of the sequence set forth in the Beetham et al. 1993 paper and in the NCBI Entrez Nucleotide Browser at accession number L05779, which include the 5′ untranslated region and the 3′ untranslated region.) The evolution and nomenclature of the gene is discussed in Beetham et al., DNA Cell Biol. 14(1):61-71 (1995). Soluble epoxide hydrolase represents a single highly conserved gene product with over 90% homology between rodent and human (Arand et al., FEBS Lett., 338:251-256 (1994)). Unless otherwise specified, as used herein, the terms “soluble epoxide hydrolase” and “sEH” refer to human sEH. […]

metabolic stability [2]	activity on sEH (sEH)	Structure (SMILES)	DN disease progression [1]
		O=C(O)CCCc1ccccc1 [4-PBA, 4-phenyl butyric acid]	slow DN disease progression
metabolically stable	particularly high activity	CCCCCCCCCCCCNC(=O)NC12CC3CC(CC(C3)C1)C2 [ADU, N-Adamantyl-N′-dodecyl urea]	
		C[C@H](CCC(=O)NCCS(=O)(=O)O)[C@H]1CC[C@H]2[C@@H]3[C@@H](O)C[C@@H]4C[C@H](O)CC[C@]4(C)[C@H]3CC[C@]12C [TUDCA, tauroursodeoxycholic acid]	slow DN disease progression
